The values that follow come from ChEMBL document CHEMBL3508140 (2016).

The nature of data set [1]: Increase in serum triglycerides level following intravenous idarubicin at 0.3 mg.Kg-1 per week in rat. In kind it is toxicity, organism-based, SD. Also noted: dose 0.3 mg.Kg-1, dosed compound id 2.46809e+06, dosed compound name Idarubicin, dose level Low, gender Mixed, regimen Once per week, route intravenous, sampling time 8-22 Week, study doses 0/0.3/0.6/1 mg.Kg-1. The conditions noted are these: in vivo.

Data set [2] in a line: (§1) Decrease in leukocytes observed following intravenous idarubicin at 0.3 mg.Kg-1 per week in rat. In kind it is toxicity, organism-based, SD, Blood. Also noted: dose 0.3 mg.Kg-1, dosed compound id 2.46809e+06, dosed compound name Idarubicin, dose level Low, gender Mixed, regimen Once per week, route intravenous, sampling time 8 Week, study doses 0/0.3/0.6/1 mg.Kg-1. The conditions noted are these: in vivo.

Data set [3] in a line: Increase in serum phospholipid level following intravenous idarubicin at 0.6 mg.Kg-1 per week in rat. In kind it is toxicity, organism-based, SD. Further details: dose 0.6 mg.Kg-1, dosed compound id 2.46809e+06, dosed compound name Idarubicin, dose level Intermediate, gender Mixed, regimen Once per week, route intravenous, sampling time 8-22 Week, study doses 0/0.3/0.6/1 mg.Kg-1. The conditions noted are these: in vivo.

Data set [4] in a line: Incidence of leukocyturia following intravenous idarubicin at 0.3 mg.Kg-1 per week in rat. In kind it is toxicity, organism-based, SD. Also noted: dose 0.3 mg.Kg-1, dosed compound id 2.46809e+06, dosed compound name Idarubicin, dose level Low, gender Mixed, regimen Once per week, route intravenous, sampling time 36 Week, study doses 0/0.3/0.6/1 mg.Kg-1. The conditions noted are these: in vivo.

Data set [5] can be described thus: (§2) Decrease in leukocytes observed following intravenous idarubicin at 0.6 mg.Kg-1 per week in rat. Also noted: dose 0.6 mg.Kg-1, dosed compound id 2.46809e+06, dosed compound name Idarubicin, dose level Intermediate, gender Mixed, regimen Once per week, route intravenous, sampling time 4 Week, study doses 0/0.3/0.6/1 mg.Kg-1. The conditions noted are these: in vivo. The class given is toxicity, organism-based, SD, Blood.

Data set [6] in a line: as §1. The class given is toxicity, organism-based, SD, Blood. Further details: dosed compound id 2.46809e+06, dosed compound name Idarubicin, dose level Low, gender Mixed, route intravenous, sampling time 4 Week, study doses 0/0.3/0.6/1 mg.Kg-1. The conditions noted are these: in vivo.
A short description of data set [7]: as §2. In kind it is toxicity, organism-based, SD, Blood. Also noted: dosed compound id 2.46809e+06, dosed compound name Idarubicin, dose level Intermediate, gender Mixed, route intravenous, sampling time 8 Week, study doses 0/0.3/0.6/1 mg.Kg-1. The conditions noted are these: in vivo.
The nature of data set [8]: Increase in serum total cholesterol level following intravenous idarubicin at 0.6 mg.Kg-1 per week in rat. The class given is toxicity, organism-based, SD. Further details: dose 0.6 mg.Kg-1, dosed compound id 2.46809e+06, dosed compound name Idarubicin, dose level Intermediate, gender Mixed, regimen Once per week, route intravenous, sampling time 8-22 Week, study doses 0/0.3/0.6/1 mg.Kg-1. The conditions noted are these: in vivo.

A short description of data set [9]: Increase in serum total cholesterol level following intravenous idarubicin at 0.3 mg.Kg-1 per week in rat. In kind it is toxicity, organism-based, SD. Also noted: dose 0.3 mg.Kg-1, dosed compound id 2.46809e+06, dosed compound name Idarubicin, dose level Low, gender Mixed, regimen Once per week, route intravenous, sampling time 8-22 Week, study doses 0/0.3/0.6/1 mg.Kg-1. The conditions noted are these: in vivo.

A short description of data set [10]: Plasma clearance of 4-dem-daunorubicin following intravenous 4-dem-daunorubicin at 1.0 mg.Kg-1 dose in dog. The class given is ADME, organism-based, Canis lupus familiaris. Further details: dose 1 mg.Kg-1, dosed compound id 2.46809e+06, dosed compound name Idarubicin, route intravenous. The conditions noted are these: Beagle, read-out: Clp.
Data set [11] is described as follows: Incidence of leukocyturia following intravenous idarubicin at 0.6 mg.Kg-1 per week in rat. In kind it is toxicity, organism-based, SD. The conditions noted are these: in vivo. Also noted: dose 0.6 mg.Kg-1, dosed compound id 2.46809e+06, dosed compound name Idarubicin, dose level Intermediate, gender Mixed, regimen Once per week, route intravenous, sampling time 36 Week, study doses 0/0.3/0.6/1 mg.Kg-1.

The nature of data set [12]: Decrease in albumin due to persistent proteinuria following intravenous idarubicin at 0.3 mg.Kg-1 per week in rat. The class given is toxicity, organism-based, SD, Serum. Further details: dose 0.3 mg.Kg-1, dosed compound id 2.46809e+06, dosed compound name Idarubicin, dose level Low, gender Mixed, regimen Once per week, route intravenous, sampling time 36 Week, study doses 0/0.3/0.6/1 mg.Kg-1. The conditions noted are these: in vivo.

A short description of data set [13]: Incidence of persistent proteinuria following intravenous idarubicin at 0.6 mg.Kg-1 per week in rat. Also noted: dose 0.6 mg.Kg-1, dosed compound id 2.46809e+06, dosed compound name Idarubicin, dose level Intermediate, gender Mixed, regimen Once per week, route intravenous, sampling time 36 Week, study doses 0/0.3/0.6/1 mg.Kg-1. The class given is toxicity, organism-based, SD. The conditions noted are these: in vivo.

Data set [14] can be described thus: Increase in serum triglycerides level following intravenous idarubicin at 0.6 mg.Kg-1 per week in rat. The class given is toxicity, organism-based, SD. Further details: dose 0.6 mg.Kg-1, dosed compound id 2.46809e+06, dosed compound name Idarubicin, dose level Intermediate, gender Mixed, regimen Once per week, route intravenous, sampling time 8-22 Week, study doses 0/0.3/0.6/1 mg.Kg-1. The conditions noted are these: in vivo.

A short description of data set [15]: Incidence of persistent proteinuria following intravenous idarubicin at 0.3 mg.Kg-1 per week in rat. The class given is toxicity, organism-based, SD. Further details: dose 0.3 mg.Kg-1, dosed compound id 2.46809e+06, dosed compound name Idarubicin, dose level Low, gender Mixed, regimen Once per week, route intravenous, sampling time 36 Week, study doses 0/0.3/0.6/1 mg.Kg-1. The conditions noted are these: in vivo.

The nature of data set [16]: Volume of distribution of 4-dem-daunorubicin following intravenous 4-dem-daunorubicin at 1.0 mg.Kg-1 dose in dog. In kind it is ADME, organism-based, Canis lupus familiaris. Also noted: dose 1 mg.Kg-1, dosed compound id 2.46809e+06, dosed compound name Idarubicin, route intravenous. The conditions noted are these: Beagle, plasma.
Data set [17] in a line: Increase in serum phospholipid level following intravenous idarubicin at 0.3 mg.Kg-1 per week in rat. In kind it is toxicity, organism-based, SD. Further details: dose 0.3 mg.Kg-1, dosed compound id 2.46809e+06, dosed compound name Idarubicin, dose level Low, gender Mixed, regimen Once per week, route intravenous, sampling time 8-22 Week, study doses 0/0.3/0.6/1 mg.Kg-1. The conditions noted are these: in vivo.

Data set [18] can be described thus: Terminal half-life of 4-dem-daunorubicin following intravenous 4-dem-daunorubicin at 1.0 mg.Kg-1 dose in dog. The conditions noted are these: Beagle, plasma. The class given is ADME, organism-based, Canis lupus familiaris. Also noted: dose 1 mg.Kg-1, dosed compound id 2.46809e+06, dosed compound name Idarubicin, route intravenous.
A short description of data set [19]: Decrease in albumin due to persistent proteinuria following intravenous idarubicin at 0.6 mg.Kg-1 per week in rat. The class given is toxicity, organism-based, SD, Serum. Further details: dose 0.6 mg.Kg-1, dosed compound id 2.46809e+06, dosed compound name Idarubicin, dose level Intermediate, gender Mixed, regimen Once per week, route intravenous, sampling time 36 Week, study doses 0/0.3/0.6/1 mg.Kg-1. The conditions noted are these: in vivo.

Data set [20] in a line: Mortality occurred following intravenous idarubicin at 0.6 mg.Kg-1 per week in rat. In kind it is toxicity, organism-based, SD. Further details: dose 0.6 mg.Kg-1, dosed compound id 2.46809e+06, dosed compound name Idarubicin, dose level Intermediate, gender Mixed, regimen Once per week, route intravenous, sampling time 13 Week, study doses 0/0.3/0.6/1 mg.Kg-1. The conditions noted are these: in vivo.

For `CC(=O)[C@]1(O)Cc2c(O)c3c(c(O)c2[C@@H](O[C@H]2C[C@H](N)[C@H](O)[C@H](C)O2)C1)C(=O)c1ccccc1C3=O` [IDARUBICIN], the TRIG_CHANGE result in [1] and in [14] was “OUTCOME = Increased” in each case. The WBC_CHANGE in data set [2] is listed as 35%; in data set [5] it was 50%; in [6], 35%; in data set [7] it was 55%. The PHOSLPD_CHANGE result in data set [3] and in data set [17] was “OUTCOME = Increased” each time. Moreover, the Incidence result in data set [4], in data set [11], in data set [13] and in data set [15] was “OUTCOME = Observed” in each case. The CHOL_CHANGE entry in data set [8] and in data set [9] was “OUTCOME = Increased” each time. The clearance in [10] was 711 mL/min. Moreover, the ALB_CHANGE result in data set [12] and in data set [19] was “OUTCOME = Decreased” throughout. In addition, the Vd in data set [16] stood at 34.5 L/kg. Further, the half-life in [18] worked out at 6 min. Moreover, in data set [20], the Mortality entry is on record as “OUTCOME = Observed, N_AFFECTED = 12”.

One may read the Vd as a proportionality between amount in the body and measured concentration, not a real space. A lower Vd goes with confinement near the circulation. As usually defined, the half-life is how long it takes for the measured level to halve.
